In PubChem BioAssay (NCI):
Several values for one entry are separate records, joined by “and”; a condition that tells them apart may be missing. Equal entries are not always repeated.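 Protocol summary: plate cells (96-well), add compound at 5 concentrations, incubate 48 h, interpolate endpoints linearly. Abbreviation: GI50, concentration required for 50% inhibition of growth. TGI denotes the concentration required for complete inhibition of growth.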

Experiments:
Test in all cases: growth of human tumour cells (NCI), 48 h
NCI-H522 lung = tested on: NCI-H522 lung
MOLT-4 leukemia = tested on: MOLT-4 leukemia
HOP-62 NSCLC = tested on: HOP-62 NSCLC
MCF7 breast = tested on: MCF7 breast
UACC-62 melanoma = tested on: UACC-62 melanoma
SK-MEL-5 melanoma = tested on: SK-MEL-5 melanoma
UO-31 renal = tested on: UO-31 renal
M14 melanoma = tested on: M14 melanoma
NCI-H23 lung = tested on: NCI-H23 lung
OVCAR-5 ovarian = tested on: OVCAR-5 ovarian

Structure (SMILES) | GI50 (NCI-H522 lung) | TGI (NCI-H522 lung) | GI50 (MOLT-4 leukemia) | TGI (MOLT-4 leukemia) | GI50 (HOP-62 NSCLC) | TGI (HOP-62 NSCLC) | GI50 (MCF7 breast) | TGI (MCF7 breast) | GI50 (UACC-62 melanoma) | TGI (UACC-62 melanoma) | GI50 (SK-MEL-5 melanoma) | TGI (SK-MEL-5 melanoma) | GI50 (UO-31 renal) | TGI (UO-31 renal) | GI50 (M14 melanoma) | TGI (M14 melanoma) | GI50 (NCI-H23 lung) | TGI (NCI-H23 lung) | GI50 (OVCAR-5 ovarian) | TGI (OVCAR-5 ovarian)
CCOC(=O)c1c(-c2ccccc2)[n+](=O)c2ccc(Cl)cc2n1[O-] | > 100 µM | > 100 µM | 4.93 µM | 45.6 µM | 8.64 µM | 20.8 µM | 5.37 µM | 40.6 µM | 12.5 µM | 25.4 µM | 1.63 µM | 3.33 µM | 1.92 µM | 3.69 µM | 10.1 µM | 21.7 µM | 11.2 µM | 23.4 µM | 7.12 µM | 20.2 µM
Clc1cc(Cl)c(Cl)c(-c2nc(-c3cccnc3)cs2)c1 | 9.22 µM | 38.3 µM | 39.1 µM | > 100 µM | 23.5 µM | 83.8 µM | 10.4 µM | > 100 µM | 24 µM | 73.3 µM | 23.6 µM | > 100 µM | 31 µM | > 100 µM | 4.47 µM | > 100 µM | 30 µM | > 100 µM | 32.3 µM | 92.8 µM
O=C(O)CC(Nc1ccccc1)C(=O)O (stereo unspecified) |  | > 100 µM |  | > 100 µM |  | > 100 µM |  | > 100 µM |  | > 100 µM |  | > 100 µM |  | > 100 µM |  | > 100 µM |  | > 100 µM |  | > 100 µM
CN(C)CCCN(c1nc(C(Cl)(Cl)Cl)ns1)c1nc(C(Cl)(Cl)Cl)ns1 | 1.71 µM | 3.45 µM | 1.93 µM | 4.23 µM | 1.64 µM | 3.07 µM | 1.9 µM | 3.62 µM | 2.1 µM | 4.91 µM | 1.6 µM | 2.95 µM | 1.47 µM | 3.08 µM | 1.89 µM | 3.63 µM | 2.04 µM | 5.55 µM | 1.82 µM | 3.8 µM
CNNCc1ccc(C(=O)NC(C)C)cc1 |  | > 500 µM | > 500 µM | 426 µM and > 500 µM | > 500 µM | > 500 µM |  | > 500 µM | > 500 µM | 393 µM and > 500 µM | > 500 µM | > 500 µM |  | > 500 µM |  | > 500 µM |  | > 500 µM | > 500 µM | > 500 µM
CC#CS(=O)(=O)c1ccccc1 |  | 3.92 µM |  | 1.43 µM |  | 47.2 µM |  | 40.9 µM |  | 14.2 µM |  | 15.4 µM |  | 3.58 µM |  | 21.4 µM |  | 18.8 µM |  | 18.2 µM
C/C(CC(=O)NNc1ccc([N+](=O)[O-])cc1)=N\Nc1ccc([N+](=O)[O-])cc1 | 0.776 µM | 7.92 µM | 6.45 µM | > 100 µM | 14.2 µM | 38 µM | 12.9 µM | > 100 µM | 1.55 µM | 19 µM | 2.13 µM | 5.42 µM | 1.88 µM | > 100 µM | 2.11 µM | 18.3 µM | 15 µM | 39.3 µM | 99.4 µM | > 100 µM
COc1ccc2c(c1)CCc1c(-c3noc4c3CCc3cc(OC)ccc3-4)noc1-2 |  | > 100 µM |  | > 100 µM |  | > 100 µM |  | > 100 µM |  | > 100 µM |  | > 100 µM |  | > 100 µM |  | > 100 µM |  | > 100 µM |  | > 100 µM
CCCc1cc2cc(-n3nc(C)c4c3CC(C)(C)CC4=O)cc(NC3CCC(O)CC3)c2c(=O)[nH]1 (stereo unspecified) | 0.257 µM | > 100 µM | 0.186 µM | > 100 µM | 0.129 µM | > 100 µM | 0.0516 µM | > 100 µM | 0.189 µM | 5.39 µM | 0.241 µM | 3.56 µM | 0.146 µM | > 100 µM | 0.0944 µM | > 100 µM | 0.0584 µM | > 100 µM | 0.626 µM | > 100 µM
O=C(O)C1NCCc2c1[nH]c1ccccc21 (stereo unspecified) | > 100 µM | > 100 µM | > 100 µM | > 100 µM |  | > 10 µM |  | > 10 µM | > 100 µM | > 100 µM | > 100 µM | > 100 µM |  | > 100 µM | > 100 µM | > 100 µM | > 100 µM | > 100 µM |  | > 100 µM
